Source: article PMC10272271, “MAM-2201 acute administration impairs motor, sensorimotor, prepulse inhibition, and memory functions in mice: a comparison with its analogue AM-2201” (Psychopharmacology, 2023)

Columns and labels:
human CB1 receptors [1] = molecular target: T1, human CB1 receptors (Homo sapiens, UniProt P21554); assay: Cyclic AMP assay, hCB1 CHO cells; assay type: cell-based; details: for agonist behaviour (inhibition of forskolin-stimulated cAMP production): CHO cells, human CB1
T1 construct: host or cells: CHO cells
T1 sequence (P21554 whole entry): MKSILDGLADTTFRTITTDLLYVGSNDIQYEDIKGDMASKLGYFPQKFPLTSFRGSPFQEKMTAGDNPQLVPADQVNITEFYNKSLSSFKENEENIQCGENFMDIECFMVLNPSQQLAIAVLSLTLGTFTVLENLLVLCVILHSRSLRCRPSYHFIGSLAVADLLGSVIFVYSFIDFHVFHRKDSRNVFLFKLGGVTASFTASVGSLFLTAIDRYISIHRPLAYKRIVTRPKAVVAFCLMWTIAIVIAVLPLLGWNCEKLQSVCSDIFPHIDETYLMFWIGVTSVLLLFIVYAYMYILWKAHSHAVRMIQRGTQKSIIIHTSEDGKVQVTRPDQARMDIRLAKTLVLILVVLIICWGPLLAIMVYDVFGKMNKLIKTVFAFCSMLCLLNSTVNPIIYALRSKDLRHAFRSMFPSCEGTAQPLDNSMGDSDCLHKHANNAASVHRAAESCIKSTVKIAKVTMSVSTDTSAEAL
Protocol: (§1) CHO cells transfected with human CB1 or CB2 receptors were washed with PBS, detached with trypsin, and centrifuged for 10 min at 200 × g. The pellet containing 1 × 10^6 cells/assay was suspended in 0.5 ml of buffer containing150 mM NaCl, 2.7 mM KCl, 0.37 mM NaH2PO4, 1 mM MgSO4, 1 mM CaCl2, 5 mM HEPES, 10 mM MgCl2, and 5 mM glucose, at pH 7.4 and 37 °C. Cells were pre-incubated with 0.5 mM of the phosphodiesterase inhibitor 4-(3-butoxy-4-methoxybenzyl)-2-imidazolidinone (Ro 20–1724;) for 10 min in a shaking bath at 37 °C. The potency of the examined compounds to inhibit adenylate cyclase activity was determined in the presence of forskolin 1-µM stimulation. The reaction was terminated by the addition of cold 6% trichloroacetic acid (TCA) and the final aqueous solution was tested for cyclic AMP levels by a competition protein binding assay (AlphaScreen cAMP Detection Kit, Cat. Number 6760635D, Perkin Elmer Life and Analytical Sciences, USA) following the manufacturer’s instructions; Vincenzi et al. [2013]).
(§2) The protein concentration was determined according to a Bio-Rad method (500–0006; Bio-Rad Laboratories, Hercules, CA, USA) with bovine serum albumin as a reference standard. Inhibitory binding constants, Ki, were calculated from the IC50 values according to the Cheng and Prusoff equation: Ki = IC50/(1 + [C*]/KD*), where [C*] is the concentration of the radioligand and KD* its dissociation constant. Functional experiments were analyzed by non-linear regression analysis using the equation for a sigmoid concentration–response curve (GraphPad Prism, USA). All the data are expressed as the mean ± SEM of three independent experiments.

human CB2 receptors [2] = molecular target: T2, human CB2 receptors (Homo sapiens, UniProt P34972); assay: Cyclic AMP assay, hCB2 CHO cells; assay type: cell-based; details: for agonist behaviour (inhibition of forskolin-stimulated cAMP production): CHO cells, human CB2
T2 construct: host or cells: CHO cells
T2 sequence (P34972 whole entry): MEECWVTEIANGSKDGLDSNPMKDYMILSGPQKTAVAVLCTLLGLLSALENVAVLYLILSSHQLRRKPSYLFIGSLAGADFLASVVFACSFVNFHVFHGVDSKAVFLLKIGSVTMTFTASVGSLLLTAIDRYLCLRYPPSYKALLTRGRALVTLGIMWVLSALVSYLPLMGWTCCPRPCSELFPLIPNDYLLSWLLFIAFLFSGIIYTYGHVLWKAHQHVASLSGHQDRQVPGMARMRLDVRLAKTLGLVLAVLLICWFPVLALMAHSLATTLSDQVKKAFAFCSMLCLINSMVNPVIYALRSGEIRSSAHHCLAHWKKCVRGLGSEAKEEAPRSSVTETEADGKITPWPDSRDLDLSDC
Protocol: as §1, §2

murine CB2 receptors = molecular target: T3, murine CB2 receptors (Mus musculus, UniProt P47936); assay: [3H]-CP-55,940 competition binding, mouse spleen membranes
T3 construct: membranes from mouse brain and spleen were used, respectively; from tissue; host or cells: mouse spleen membranes, CD-1 mice
T3 sequence (P47936 whole entry): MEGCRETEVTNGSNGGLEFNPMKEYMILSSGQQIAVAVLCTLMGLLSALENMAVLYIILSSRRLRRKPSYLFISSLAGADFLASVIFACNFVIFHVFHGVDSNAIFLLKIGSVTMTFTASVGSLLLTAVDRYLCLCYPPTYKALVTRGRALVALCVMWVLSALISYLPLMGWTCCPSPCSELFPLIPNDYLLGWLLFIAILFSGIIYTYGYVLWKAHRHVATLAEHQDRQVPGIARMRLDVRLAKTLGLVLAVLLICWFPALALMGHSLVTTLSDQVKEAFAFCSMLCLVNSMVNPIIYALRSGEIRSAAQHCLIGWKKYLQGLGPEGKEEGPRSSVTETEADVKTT
Protocol: (§3) To evaluate the affinity of synthetic cannabinoids for murine CB1 and CB2 receptors, membranes from mouse brain and spleen were used, respectively. Following excision from mice, tissues were suspended in 50 mM Tris HCl, pH 7.4 at 4 °C. The mouse brain and spleen tissues were homogenized with a Polytron and subsequently centrifuged for 10 min at 2000 × g. The resulting supernatants were filtered, centrifuged for 20 min at 40,000 × g and the pellets were used for competition binding experiments (Vincenzi et al. [2013]).
(§4) Competition binding experiments were carried out incubating 0.5 nM [^3H]-CP-55,940 (Perkin Elmer Life and Analytical Sciences, USA) and different concentrations of the tested compounds for 90 or 60 min at 30 °C for CB1 or CB2 receptors, respectively. […] Non-specific binding was determined in the presence of 1 mM WIN 55,212–2 (Vincenzi et al. [2013]). Bound and free radioactivity were separated by filtering the assay mixture through Whatman GF/C glass fiber filters using a Brandel cell harvester (Brandel Instruments, Unterföhring, Germany). The filter-bound radioactivity was counted using a Packard Tri Carb 2810 TR scintillation counter (Perkin Elmer Life and Analytical Sciences, USA).
(§5) The protein concentration was determined according to a Bio-Rad method (500–0006; Bio-Rad Laboratories, Hercules, CA, USA) with bovine serum albumin as a reference standard. […]

CB1 receptors = molecular target: CB1 receptors; set-up: method as in Howlett et al. [2002]; Hess et al. [2015]; details: ref Howlett et al. [2002]; Hess et al. [2015]; read-out: CB1 receptor Ki; cited from earlier work
human CB1 receptors [3] = molecular target: T1, human CB1 receptors; assay: [3H]-CP-55,940 competition binding, hCB1 CHO membranes; details: for selectivity index (ratio Ki CB2 / Ki CB1): human CB receptors
Protocol: (§6) CHO cells transfected with human CB1 or CB2 receptors (Perkin Elmer Life and Analytical Sciences, USA) were grown adherently and maintained in Ham’s F12 containing 10% fetal bovine serum, penicillin (100 U/ml), streptomycin (100 µg/ml), and Geneticin (G418, 0.4 mg/ml) at 37 °C in 5% CO2/95% air. To obtain membranes, cells were washed with PBS and scraped off with ice-cold hypotonic buffer (5 mM Tris HCl, 2 mM EDTA, pH 7.4). The cell suspension was homogenized with a Polytron and then centrifuged for 30 min at 40,000 × g. The membrane pellet was suspended in 50 mM Tris HCl buffer (pH 7.4) containing 2.5 mM EDTA, 5 mM MgCl2, 0.5% BSA for CB1 receptors or in 50 mM Tris HCl (pH 7.4), 1 mM EDTA, 5 mM MgCl2, 0.5% BSA for CB2 receptors (Vincenzi et al. [2013]).
(§7) Competition binding experiments were carried out incubating 0.5 nM [^3H]-CP-55,940 (Perkin Elmer Life and Analytical Sciences, USA) and different concentrations of the tested compounds for 90 or 60 min at 30 °C for CB1 or CB2 receptors, respectively. For human cannabinoid receptors, membranes obtained from CHO cells transfected with human CB1 or CB2 receptors (2 µg protein/100 µl) were used. Competition binding experiments at murine cannabinoid receptors were performed with mouse brain membranes (40 µg protein/100 µl) or with mouse spleen membranes (80 µg protein/100 µl) for CB1 receptors or CB2 receptors, respectively. Non-specific binding was determined in the presence of 1 mM WIN 55,212–2 (Vincenzi et al. [2013]). Bound and free radioactivity were separated by filtering the assay mixture through Whatman GF/C glass fiber filters using a Brandel cell harvester (Brandel Instruments, Unterföhring, Germany). The filter-bound radioactivity was counted using a Packard Tri Carb 2810 TR scintillation counter (Perkin Elmer Life and Analytical Sciences, USA).
as §2

CB2 receptors = molecular target: CB2 receptors; set-up: method as in Howlett et al. [2002]; Hess et al. [2015]; details: ref Howlett et al. [2002]; Hess et al. [2015]; read-out: CB2 receptor Ki; cited from earlier work
human CB2 receptors [4] = molecular target: T2, human CB2 receptors; assay: [3H]-CP-55,940 competition binding, hCB2 CHO membranes
Protocol: as §6, with “The membrane pellet was suspended in 50 mM Tris HCl buffer (pH 7.4) containing 2.5 mM EDTA, 5 mM MgCl2, 0.5% BSA for CB1 receptors or in 50 mM Tris HCl (pH 7.4), 1 mM EDTA, 5 mM MgCl2, 0.5% BSA for CB2 receptors (Vincenzi et al. [2013]).” left out
as §4, §5

murine CB1 receptors = molecular target: T4, murine CB1 receptors (Mus musculus, UniProt P47746); assay: [3H]-CP-55,940 competition binding, mouse brain (cortex) membranes; details: for selectivity index (ratio Ki CB2 / Ki CB1): murine CB receptors
T4 construct: membranes from mouse brain and spleen were used, respectively; from tissue
T4 sequence (P47746 whole entry): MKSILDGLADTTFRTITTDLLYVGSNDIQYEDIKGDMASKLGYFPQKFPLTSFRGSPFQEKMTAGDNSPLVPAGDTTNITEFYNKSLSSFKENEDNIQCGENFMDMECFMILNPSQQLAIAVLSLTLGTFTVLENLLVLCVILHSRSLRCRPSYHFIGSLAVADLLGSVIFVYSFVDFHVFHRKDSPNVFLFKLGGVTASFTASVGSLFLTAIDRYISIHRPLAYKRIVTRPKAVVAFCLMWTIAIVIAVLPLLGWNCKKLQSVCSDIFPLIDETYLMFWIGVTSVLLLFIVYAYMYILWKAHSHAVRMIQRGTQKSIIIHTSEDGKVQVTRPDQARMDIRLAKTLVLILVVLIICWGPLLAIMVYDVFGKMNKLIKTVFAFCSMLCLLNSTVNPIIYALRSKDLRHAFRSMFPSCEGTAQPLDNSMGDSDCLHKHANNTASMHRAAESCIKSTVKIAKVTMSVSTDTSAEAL
Protocol: as §3, §7, §2

SMILES	IC50 (human CB1 receptors [1])	agonist behaviour (inhibition of forskolin-stimulated cAMP production) (human CB1 receptors [1])	IC50 (human CB2 receptors [2])	agonist behaviour (inhibition of forskolin-stimulated cAMP production) (human CB2 receptors [2])	Ki (murine CB2 receptors)	Ki (CB1 receptors)	Ki (human CB1 receptors [3])	selectivity index (ratio Ki CB2 / Ki CB1) (human CB1 receptors [3])	Ki (CB2 receptors)	Ki (human CB2 receptors [4])	Ki (murine CB1 receptors)	selectivity index (ratio Ki CB2 / Ki CB1) (murine CB1 receptors)
O=C(c1cccc2ccccc12)c1cn(CCCCCF)c2ccccc12 [AM-2201, 1-[(5-Fluoropentyl)-1H-indol-3-yl](1-naphthylenyl) methanone]	2.84 ± 0.21 nM	full agonists	31.8 ± 2.9 nM	full agonists	14.6 ± 1.2 nM	1 nM	1.66 ± 0.13 nM	9.9	2.6 nM	16.4 ± 1.5 nM	1.96 ± 0.13 nM	7.4
Cc1ccc(C(=O)c2cn(CCCCCF)c3ccccc23)c2ccccc12 [MAM-2201, 1-[(5-fluoropentyl)-1H-indol-3-yl](4-methyl-1-naphthalenyl) methanone]	1.26 ± 0.56 nM	full agonists	22.4 ± 3.8 nM	full agonists	9.6 ± 1.9 nM	2.07 ± 0.82 nM	1.11 ± 0.12 nM	9.3	0.582 ± 0.123 nM	10.3 ± 2.1 nM	1.07 ± 0.23 nM	9.0
